Results on one molecule are retold here after US20230295088A1, “INSULIN SENSITIZERS FOR THE TREATMENT OF DIABETES MELLITUS” (University of Iowa Research Foundation, priority 2020, published 2023).

For series [1], the system named is GLUT4 expressing tissues of DIO mice. The experiment in a line: PET/CT measurement of 18F-FDG uptake in DIO mice. In kind it is in vivo, mouse. To be noted: HFD supplemented with C59 for two weeks. As for the experimental part:
C59 improves glucose uptake in storage tissues of DIO mice. Since insulin resistance results in a failure to transport glucose from the circulation to tissues that can use it as a source of energy or store it, it was tested whether treating insulin resistant DIO mice with C59 results in an increase in glucose uptake in GLUT4 expressing tissues. For this, insulin resistant DIO mice (fed a HFD for 10 weeks) were fed HFD or HFD supplemented with C59 for two weeks before injection of ^18F-FDG and uptake of the radioactive glucose tracer was measured by PET/CT.

Series [2] relates to diet-induced obese (DIO) mice. The series is described as follows: Glucose tolerance, fasting glucose and insulin in diet-induced obese (DIO) insulin-resistant mice. The format is in vivo, mouse. To be noted: DIO mice, C59 treatment. As for the experimental part:
To test whether C3 improves glucose handling, WT mice were made insulin-resistant by feeding them a high fat diet (HFD) for a period of 10 weeks. After 10 weeks, mice were injected with vehicle. C3 (20 mg/kg), or the TZD rosiglitazone (20 mg/kg) for 2 weeks while remaining on the HFD. […] To further test the in vivo efficacy of C3, a glucose tolerance test (GTT) was perfromed.
To test whether C3 improves glucose handling, lean mice were injected with vehicle or C3 30 minutes before performing a glucose tolerance test. […] To further determine if C3 can reverse glucose intolerance, WT mice were made insulin-resistant by feeding them a high fat diet (HFD) for a period of 10 weeks. Diet induced obese (DIO) mice were then injected with vehicle or C3 for 2 weeks while remaining on HFD.

Another series concerns the target T1, PPARg (Homo sapiens, UniProt P37231).
T1 sequence (P37231 1-505): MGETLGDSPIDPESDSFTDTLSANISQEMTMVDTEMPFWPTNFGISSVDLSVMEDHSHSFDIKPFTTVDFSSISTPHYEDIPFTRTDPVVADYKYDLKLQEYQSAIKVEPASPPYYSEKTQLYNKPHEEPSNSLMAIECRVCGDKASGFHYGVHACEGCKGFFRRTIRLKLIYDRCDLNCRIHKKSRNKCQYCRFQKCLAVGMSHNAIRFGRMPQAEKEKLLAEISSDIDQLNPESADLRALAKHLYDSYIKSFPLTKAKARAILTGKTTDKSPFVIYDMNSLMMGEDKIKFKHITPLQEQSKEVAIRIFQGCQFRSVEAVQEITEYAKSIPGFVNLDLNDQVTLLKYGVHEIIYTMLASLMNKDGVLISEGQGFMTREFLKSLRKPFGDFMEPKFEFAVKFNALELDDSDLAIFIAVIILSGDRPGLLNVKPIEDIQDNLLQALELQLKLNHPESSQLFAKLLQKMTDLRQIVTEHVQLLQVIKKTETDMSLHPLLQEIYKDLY
The series is described as follows: Luminescent PPARg reporter assay in vitro. In kind it is cell-based. The text has this: C3 is not liver toxic and acts through a different mechanism than TZDs. […] Deleterious side effect or TZDs are due to their agonism of PPARg.

In the next series the test system is lean mice. The series is described as follows: Glucose tolerance test in lean mice. In kind it is in vivo, mouse. Particulars: single injection before GTT. As for the experimental part: C3 improves glucose tolerance in lean and obese insulin resistant mice. To test whether C3 improves glucose handling, lean mice were injected with vehicle or C3 30 minutes before performing a glucose tolerance test. […] To further determine if C3 can reverse glucose intolerance, WT mice were made insulin-resistant by feeding them a high fat diet (HFD) for a period of 10 weeks. Diet induced obese (DIO) mice were then injected with vehicle or C3 for 2 weeks while remaining on HFD. […] Together those results establish in vivo efficacy of C3 for the treatment of insulin resistance.

The target in series [3] is T2, Unc119b (Homo sapiens, UniProt A6NIH7).
T2 construct: expressed in transfected cells
The experiment in a line: Luminescence complementation based thermal shift assay, Unc119b-HiBiT. To be noted: crude extract of Unc119b-HiBiT transfected cells, 10 minutes incubation, heated 3 minutes. The format is binding. The text has this: (§1) Identification of the molecular target of C59. Since the discovery of C59 as an insulin sensitizer was achieved using a phenotypic screen, the molecular target of the compound was unknown. To identify the target, a Proteome Integral Solubility Alteration (PISA) assay was used. […] To measure the shift in thermal stability, constructs coding for Unc119-HiBiT and Unc119b-HiBit were generated, thus allowing the quantitative detection of those proteins by adding LgBiT and furimazin to the lysates and measuring luminescence. Crude extract from cells transfected with Unc119-HiBiT or Unc119b-HiBiT, were incubated with DMSO or C59 for 10 minutes, aliquoted, heated for 3 minutes at the indicated temperature and allowed to cool down to room temperature before adding LgBiT and furimazin and reading luminescence on a plate reader.

In series [4] the target is T3, Unc119b (Mus musculus, UniProt Q8C4B4).
T3 construct: endogenous in cells
The experiment in a line: Proteome Integral Solubility Alteration (PISA) assay, Unc119b. In kind it is binding. Further details: dose or concentration left out as unconfirmed.
Source text: as §1

The test system of series [5] is Unc119 KO HBG4 cells. The experiment in a line: 3H-Deoxy-D-Glucose uptake in Unc119 KO HBG4 cells. The format is cell-based, mouse. As for the experimental part: (§2) Unc119 and Unc119b are important for the insulin sensitizing effect of C59. After identifying Unc119 proteins as molecular targets for C59, it was tested whether those proteins were responsible for the insulin sensitizing activity of C59. To this end Unc119 and Unc119b KO HBG4 cells were generated using CRISPR/Cas9 technology. For each of those cell lines two gRNA surrounding the start codon were used, thus resulting in a deletion of a fragment of the Unc119 genes that includes the ATG. Deletion of Unc119 and Unc119b in clonal cell lines were screened and verified by PCR (FIG. 4E). The effect of C59 on insulin-stimulated. […] To further test this finding, 3H-Deoxy-D-Glucose uptake in WT, Unc119 KO and Unc119b KO HBG4 cells treated with vehicle, insulin, C59 alone and C59 with insulin was measured.

In series [6] the test system is Unc119 KO HBG4 cells. The experiment in a line: Insulin-stimulated GLUT4 translocation in Unc119 KO HBG4 cells. In kind it is cell-based, mouse. As for the experimental part: as §2
Series [7] can be described thus: Solubility in aqueous solution. To be noted: compared with C3. The format is physicochemical.
The next series addresses T4, Unc119 (Mus musculus, UniProt Q9Z2R6).
T4 construct: endogenous in cells
The series is described as follows: Proteome Integral Solubility Alteration (PISA) assay, Unc119. Further details: dose or concentration left out as unconfirmed. The format is binding.
Source text: as §1

Entries after “also recorded” stand apart in the source; their conditions may differ.

T3 sequence (Q8C4B4 whole entry): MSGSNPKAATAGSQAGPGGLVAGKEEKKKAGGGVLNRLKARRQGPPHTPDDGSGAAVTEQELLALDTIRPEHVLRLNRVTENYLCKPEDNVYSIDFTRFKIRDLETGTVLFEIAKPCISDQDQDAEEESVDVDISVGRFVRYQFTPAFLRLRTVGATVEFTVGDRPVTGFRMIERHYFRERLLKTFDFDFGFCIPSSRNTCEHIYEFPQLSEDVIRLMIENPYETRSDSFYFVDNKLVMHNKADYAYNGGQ
T2 sequence (A6NIH7 whole entry, species assumed): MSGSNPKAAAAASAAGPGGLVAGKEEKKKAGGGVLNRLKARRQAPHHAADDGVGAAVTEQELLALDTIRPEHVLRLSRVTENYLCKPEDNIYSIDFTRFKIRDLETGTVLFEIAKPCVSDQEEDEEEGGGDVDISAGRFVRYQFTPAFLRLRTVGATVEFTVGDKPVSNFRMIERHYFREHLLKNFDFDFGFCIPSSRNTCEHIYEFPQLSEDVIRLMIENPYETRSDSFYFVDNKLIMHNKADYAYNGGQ

Take `O=C(Nc1ccc(Cl)c(Cl)c1)C12CC3CC(CC(C3)C1)C2` [Compound C59]: in series [1], the “18F-FDG uptake in BAT” value is “significantly increased”, the “18F-FDG uptake in WAT” value is “significantly increased”, the “18F-FDG uptake in heart tissues” value is “significantly increased” and the “18F-FDG uptake in skeletal muscles” value was “significantly increased”. Moreover, the “glucose handling in DIO mice” value in series [2] is “drastically improves”. Besides, on PPARg, the PPARg agonist activity entry is “neither C3 nor C59 have PPARγ agonist activity”. In addition, in the series with lean mice, the “glucose clearance in glucose tolerance test” value is “improvement”. The “thermostability shift for Unc119b” value at Unc119b [3] turned out to be 6.7 C. Also, on Unc119b [4] (live cells, vs DMSO and C29), the “thermostability of Unc119b (PISA)” value is recorded as “increased the thermostability; also recorded: concentration dependent increased thermostability”. In addition, on Unc119b [4] (lysates (crude extract)), the “thermostability of Unc119b (PISA)” value is “increased the thermostability”. Moreover, the “3H-Deoxy-D-Glucose uptake, compound alone” value with Unc119 KO HBG4 cells [5] (no insulin) is “did not stimulate”. Further, the “insulin stimulated 3H-Deoxy-D-Glucose uptake” value in the series with Unc119 KO HBG4 cells [5] (with insulin) is reported as “failed to do so”. Further, the “insulin-stimulated GLUT4 translocation” value in the series on Unc119 KO HBG4 cells [6] is reported as “failed to enhance”. Further, in series [7], the “solubility in aqueous solution” value is on record as “improved solubility”. Besides, the “thermostability of Unc119 (PISA)” value on Unc119 (live cells, vs DMSO and C29) was “increased the thermostability; also recorded: concentration dependent increased thermostability”. In addition, the “thermostability of Unc119 (PISA)” value at Unc119 (lysates (crude extract)) is “increased the thermostability”.
